According to a compilation of properties of binary mixtures (doi:10.1021/je300132e):

Assay: xn = mol fraction of the nth substance listed
Conditions: 101 kPa

CC(=O)[O-].CC[n+]1ccn(C)c1 + O
viscosity [mPa·s]
Conditions	x2 = 0.347	x2 = 0.517	x2 = 0.578	x2 = 0.627	x2 = 0.705
293.1 K	93.7	–	–	42.8	–
313.1 K	35.2	24.4	21.4	18.2	14
333.1 K	16.9	–	–	9.39	7.36
353.1 K	9.51	7.19	6.46	5.63	4.38

CC[NH+](C)CC.CS(=O)(=O)[O-] + O
viscosity [mPa·s]
Conditions	x2 = 0.372	x2 = 0.449	x2 = 0.507	x2 = 0.624	x2 = 0.707
293.1 K	65.26	49.94	41.92	27.93	–
313.1 K	–	21.55	18.69	13.36	10.09
333.1 K	–	11.37	–	7.34	5.72
353.1 K	8.2	–	6.08	–	3.6
